Results published in US7105567B2, “3-substituted urea derivatives and medicinal use thereof” (Mitsubishi Pharma Corporation, priority 2000, dated 2006).
Structures can show the parent of a compound that is named as a salt. Each block holds one compound with its values, some of them ahead of it.

How the values were obtained:
[1] = tested on: C5a-stimulated neutrophile; assay: Migrating ability of C5a-stimulated neutrophile; type: cell-based; settings: 1.5 h; human neutrophile, C5a 100 pmol/L, chemotaxicell, 90 min; read-out: IC50 value, inhibition of migration of C5a-stimulated neutrophile
Procedure: A neutrophile fraction was separately taken from human peripheral venous blood using Lympholyte-poly (Cedarlane) and suspended in RPMI 1640 medium (GIBCO BRL) supplemented with 0.1% bovine serum albumin (BSA). To this neutrophile fraction (5×10^6 cells/mL) was added Calcein-AM (final concentration 5 μM, FUNAKOSHI), and the mixture was incubated at 37° C. for 30 min. The cells were washed by centrifugation and suspended to a concentration of 1×10^6 cells/mL. The migration was evaluated by adding neutrophiles to chemotaxicell (pore size: 3 μm, KURABO) and measuring the neutrophiles that migrated outside the chemotaxicell. First, 100 pmol/L of C5a solution was added to 24 well plate (500 μL/well) and chemotaxicell was set in the well. […] The fluorescent intensity of each well was measured by Cyto Fluor II (Ex: 485, Em: 530). The rate (% inhibition) of the inhibition of migration of C5a-stimulated neutrophile by the test compound was calculated by the following formula, wherein the fluorescence intensity of neutrophile that migrated by C5a stimulation without addition of the test compound is Max, the fluorescent intensity of neutrophile that migrated without addition of test compound and without C5a stimulation is Min, and the fluorescent intensity of neutrophile that migrated by C5a stimulation with the addition of the test compound is Test. % inhibition=100−[(Test−Min)/(Max−Min)]×100 […]

C5a receptor = target: T1, C5a receptor (Homo sapiens, UniProt P21730); assay: C5a receptor binding assay ([125I]-human C5a, dcAMP-U-937 cells); settings: dcAMP-U-937 cell, [125I]-C5a 200 pM, 4° C. for 2 hr; read-out: IC50 value, concentration at which binding of [125I]-human C5a is inhibited by 50%
T1 construct: U-937 cell was stimulated with 1 mM dibutyryl cyclic AMP (dcAMP, SIGMA) for 2 days to express the C5a receptor; endogenous in cells; host or cells: U-937 cells (human histiocytic lymphoma line) differentiated with 1 mM dibutyryl cAMP for 2 days
T1 sequence (P21730 1-350): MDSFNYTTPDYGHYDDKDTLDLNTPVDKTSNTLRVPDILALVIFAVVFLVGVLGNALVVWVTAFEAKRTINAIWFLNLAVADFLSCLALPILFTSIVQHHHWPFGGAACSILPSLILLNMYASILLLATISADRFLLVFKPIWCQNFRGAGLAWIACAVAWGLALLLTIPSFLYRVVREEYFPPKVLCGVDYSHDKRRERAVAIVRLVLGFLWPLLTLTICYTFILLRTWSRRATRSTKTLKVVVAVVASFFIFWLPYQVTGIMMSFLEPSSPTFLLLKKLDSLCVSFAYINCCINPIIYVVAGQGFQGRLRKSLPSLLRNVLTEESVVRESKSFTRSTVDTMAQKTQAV
Procedure: The C5a receptor binding inhibitory action of C5a and the test compound was evaluated by a receptor binding assay comprising reacting human cell line U-937 (human histiocytic lymphoma line), which expresses the C5a receptor, with [^125I]-human C5a (Amersham Pharmacia Biotech) in a MultiScreen (MILLIPORE). First, U-937 cell was stimulated with 1 mM dibutyryl cyclic AMP (dcAMP, SIGMA) for 2 days to express the C5a receptor (dcAMP-U-937 cell), and suspended in a binding buffer [50 mM HEPES, 1 mM CaCl2, 5 mM MgCl2, 0.5% bovine serum albumin (BSA, SIGMA), 0.02% NaN3 (pH 7.2)] and stored at −80° C. The binding assay was started by the addition of 50 μL of dcAMP-U-937 cell suspension dissolved immediately before use, 25 μL of a binding buffer or a test compound solution, and 25 μL of [^125I]-C5a solution (final concentration 200 pM), to each well of the MultiScreen. […] After drying the MultiScreen, the radioactivity on the filter was measured using a gamma counter. The rate (% inhibition) of inhibition of C5a binding by the test compound was calculated by the following formula using the count value obtained without addition of the test compound as Total, the count value obtained with addition of non-labeled C5a as Non, and the count value obtained with addition of the test compound as Test. % Inhibition=100−[(Test−Non)/(Total−Non)]×100 […]

[2] = tested on: C5a stimulated neutrophile; assay: Production of reactive oxygen species in C5a-stimulated neutrophile; type: cell-based; settings: human neutrophile, C5a 3 nmol/L, luminol luminescence; read-out: IC50 value, inhibition of production of reactive oxygen species in C5a stimulated neutrophile
Procedure: A neutrophile fraction was separately taken from human peripheral venous blood using Lympholyte-poly (Cedarlane), and suspended in Hank's Balanced Salt Solution (HBSS, GIBCO BRL) containing 1% fetal bovine serum (FBS) and 1 mmol/L of luminol (Wako Pure Chemical Industries, Ltd.). Reactive oxygen species was measured using a luminometer (MicroLumat, Berthold) for 96 well plate. That is, 1×10^5 cells/150 μL of neutrophile suspension and 25 μL of a test compound solution were added to a well, which was set in a MicroLumat set for 37° C. and stood for about 5 min. Then, 25 μL of C5a (final concentration 3 nmol/L) was added and luminescence produced by the reaction of the luminol and the reactive oxygen species was measured with the lapse of time for 15 min. The rate (% inhibition) of inhibition of the production of reactive oxygen species in C5a stimulated neutrophile by the test compound was calculated by the following formula, wherein the peak value of the production of reactive oxygen species derived by C5a without addition of the test compound is Max, the peak value of the production of reactive oxygen species without addition of the test compound and without C5a stimulation is Min, and the peak value of the production of reactive oxygen species derived by C5a with the addition of the test compound is Test. % inhibition=100−[(Test−Min)/(Max−Min)]×100 […]

[3] = tested on: C5a stimulated neutrophile; assay: Action on increase of intracellular Ca2+ concentration of C5a stimulated neutrophile; type: cell-based, human
Procedure: A neutrophile fraction was separately taken from human peripheral venous blood using Lympholyte-poly (Cedarlane), and suspended in Hank's Balanced Salt Solution (HBSS, GIBCO BRL) supplemented with 1% fetal bovine serum (FBS). Then, Fura 2-AM (final concentration 5 μM, DOJINDO) was added to the neutrophile fraction (5×10^6 cells/mL), and the mixture was incubated at 37° C. for 40 min. The cells were washed by centrifugation and suspended to the concentration of 1×10^6 cells/mL. The intracellular Ca^2+ concentration was measured using a spectrophotofluorometer (CAF-110, JASCO Corporation), and calculated from the ratio (Ex340 value/Ex380 value) of fluorescent intensities at 500 nm upon excitation at 340 nm and 380 nm, the former being Ex340 value, the latter being Ex380 value. […] Then, Triton X-100 (final concentration 0.2%) was added and the cells were dissolved, and, sb2 value, which was the Ex 340 value then, and Rmax value, which was the Ex340 value/Ex380 value then, was measured. Then, EGTA (final concentration 3 mmol/L) was added and sf2 value, which was the Ex340 value then, and Rmin value, which was the Ex340/Ex380 value then, was measured. From these measurement results, the intracellular Ca^2+ concentration was calculated from the following formula. […]

[4] = tested on: C5a-Induced Decrease in Neutrophile in Cynomolgus Monkey; assay: C5a-induced decrease in neutrophile in cynomolgus monkey; type: in vivo; settings: 30 mg/kg orally, human C5a administered 4 hr later
Procedure: The action of the test compound on the decrease of neutrophile in peripheral blood, that occurs temporarily upon intravenous administration of human C5a to cynomolgus monkey, was evaluated. That is, the test compound was orally administered to cynomolgus monkey, and 4 hr later, human C5a was administered. The neutrophiles in peripheral blood were counted 2 min before and 1 min after administration of human C5a, and the rate (%) of decrease in neutrophiles in peripheral blood was calculated by the following formula. decrease rate (%)=100−[(neutrophiles in peripheral blood 1 min after administration of human C5a)/(neutrophiles in peripheral blood 2 min before administration of human C5a)]×100
Using the following formula, moreover, the inhibition rate (% inhibition) of decrease in neutrophiles in peripheral blood by the test compound was calculated. % inhibition=100−[(Test−Min)/(Max−Min)]×100 • Test: decrease rate of neutrophiles in peripheral blood when test compound and human C5a were administered • Min: decrease rate of neutrophiles in peripheral blood upon administration of administration medium for test compound and administration medium for human C5a • Max: decrease rate of neutrophiles in peripheral blood upon administration of administration medium for test compound and human C5a

Structure (SMILES): CC(C)c1ccc(N(Cc2ccc(Br)cc2)C(=O)Nc2c(C(C)C)cccc2C(C)C)cc1 [Example 53, N-[(4-bromophenyl)methyl]-N′-(2,6-diisopropylphenyl)-N-(4-isopropylphenyl)urea]
% inhibition of decrease in neutrophiles in peripheral blood [4]: 74%

Structure (SMILES): CC(C)c1ccc(N(Cc2cnn(Cc3ccc(C(F)(F)F)cc3)c2)C(=O)Nc2c(C(C)C)cccc2C(C)C)cc1 [Example 61, N′-(2,6-diisopropylphenyl)-N-(4-isopropylphenyl)-N-{[1-(4-trifluoromethylbenzyl)pyrazol-4-yl]methyl}urea]
melting point: 134 to 135 °C

Now from value to compound, other results behind:

melting point: 203 to 206 °C
Structure (SMILES): CC(C)c1ccc(N(Cc2ccc(N(C)C)cc2)C(=O)Nc2c(C(C)C)cccc2C(C)C)cc1 (as salt: fumarate) [Example 34, N′-(2,6-diisopropylphenyl)-N-[(4-dimethylaminophenyl)methyl]-N-(4-isopropylphenyl)urea 9/10 fumarate]

melting point: 124 to 125 °C
Structure (SMILES): CC(C)c1cccc(C(C)C)c1NC(=O)N(Cc1ccc(N(C)C)cc1)c1ccc(F)cc1 [Example 1, N′-(2,6-diisopropylphenyl)-N-[(4-dimethylaminophenyl)methyl]-N-(4-fluorophenyl)urea]

IC50 [1]: 100 nM
IC50 (C5a receptor): 100 nM
IC50 [2]: 10 nM
IC50 ([3]; human peripheral blood neutrophile, recombinant human C5a 100 pmol/L, Fura 2-AM, read-out: IC50 value, inhibition of increase in intracellular Ca2+ concentration of C5a-stimulated neutrophile): 5 nM
Structure (SMILES): CC(C)c1ccc(N(Cc2ccc(N(C)C)cc2)C(=O)Nc2c(C(C)C)cccc2C(C)C)cc1 [Example 34, N′-(2,6-diisopropylphenyl)-N-[(4-dimethylaminophenyl)methyl]-N-(4-isopropylphenyl)urea 9/10 fumarate]
agonistic action (increase in intracellular Ca2+ induced by the compound) ([3]; compound 10 μmol/L, human neutrophile): not found
